Laboratory results: patent publication US10308689B2, “Dengue virus (DV) polypeptide sequences, T cell epitopes and methods and uses thereof” (LA JOLLA INSTITUTE FOR ALLERGY AND IMMUNOLOGY, priority 2010, dated 2019)
Ends that are not written are not given here.

System: PBMC of healthy adult blood donors from Colombo, Sri Lanka
Assay: Ex vivo IFNγ ELISPOT, HLA-matched PBMC of Sri Lankan blood donors
Assay type: cell-based, human
Design: Total Response per epitope: unit not given here
Conditions: for # donors responded: number of donors responding to the epitope; for T cell response [SFC]: ex vivo IFNγ SFC/10^6 PBMC; for # of responders: responding donors, HLA allele(s)
[1] = restricting HLA allele and serotype as given
[2] = total over responding donors, restricting HLA allele and serotype as given
[3] = IFNγ ELISPOT response summed over responding donors, per epitope
[4] = HLA-matched PBMC, proteome-wide screen

Compound | # donors responded [1] | Total Response per epitope [2] | T cell response [SFC] (per epitope) | # of responders | Total Response per epitope [3] | # donors responded [4]
CC(C)C[C@H](NC(=O)[C@H](CC(C)C)NC(=O)[C@@H](NC(=O)[C@H](C)NC(=O)[C@H](C)N)C(C)C)C(=O)N[C@@H](CC(C)C)C(=O)N[C@H](C(=O)N[C@H](C(=O)N[C@@H](Cc1c[nH]cn1)C(=O)N[C@@H](Cc1ccc(O)cc1)C(=O)O)[C@@H](C)O)C(C)C | 2 | 393.3 | – | – | – | –
CC(C)C[C@H](NC(=O)[C@@H](NC(=O)[C@@H](NC(=O)[C@H](CC(C)C)NC(=O)[C@@H]1CCCN1C(=O)CNC(=O)[C@@H](NC(=O)[C@H](C)N)[C@@H](C)O)[C@@H](C)O)[C@@H](C)O)C(=O)N[C@@H](Cc1c[nH]c2ccccc12)C(=O)O | 1 | 275.0 | 275 | 1 | – | –
CSCC[C@H](NC(=O)[C@H](CCSC)NC(=O)[C@H](CC(C)C)NC(=O)[C@@H](N)CS)C(=O)N[C@@H](CCSC)C(=O)N[C@@H](CC(C)C)C(=O)N1CCC[C@H]1C(=O)N[C@@H](C)C(=O)N[C@H](C(=O)N[C@@H](CC(C)C)C(=O)O)[C@@H](C)O | 1 | 78.3 | – | – | – | –
CC(C)C[C@H](NC(=O)[C@@H](NC(=O)[C@H](C)NC(=O)[C@H](CCC(=O)O)NC(=O)CNC(=O)[C@H](CCC(N)=O)NC(=O)[C@@H](NC(=O)[C@@H]1CCCN1C(=O)[C@@H](N)CS)[C@@H](C)O)[C@@H](C)O)C(=O)O | 1 | 295.0 | – | – | – | –
CC(C)C[C@H](NC(=O)[C@@H](NC(=O)[C@H](C)NC(=O)[C@H](CCC(=O)O)NC(=O)CNC(=O)[C@H](CCC(N)=O)NC(=O)[C@@H](NC(=O)[C@@H]1CCCN1C(=O)[C@@H](N)CS)[C@@H](C)O)C(C)C)C(=O)O | 2 | 385.0 | – | – | – | –
CC[C@H](C)[C@H](NC(=O)[C@@H]1CCCN1C(=O)[C@@H](N)CC(=O)O)C(=O)N1CCC[C@H]1C(=O)N[C@@H](Cc1ccc(O)cc1)C(=O)N[C@@H](CC(=O)O)C(=O)N1CCC[C@H]1C(=O)N[C@@H](CCCCN)C(=O)N[C@@H](Cc1ccccc1)C(=O)O | 1 | 38.3 | – | – | – | –
CC(C)[C@H](NC(=O)[C@H](C)NC(=O)[C@@H](N)CCC(=O)O)C(=O)N[C@@H](CCC(=O)O)C(=O)N[C@@H](CC(=O)O)C(=O)N[C@@H](CO)C(=O)N[C@@H](CCCNC(=N)N)C(=O)N[C@@H](Cc1ccccc1)C(=O)N[C@@H](Cc1c[nH]c2ccccc12)C(=O)N[C@@H](CCC(=O)O)C(=O)O | 1 | 248.3 | – | – | – | –
CC(C)C[C@H](NC(=O)[C@H](CCC(N)=O)NC(=O)CNC(=O)[C@@H]1CCCN1C(=O)[C@@H](N)CCC(=O)O)C(=O)N[C@@H](CCCCN)C(=O)N[C@@H](CC(C)C)C(=O)N[C@@H](CC(N)=O)C(=O)N[C@@H](Cc1c[nH]c2ccccc12)C(=O)N[C@@H](Cc1ccccc1)C(=O)O | 5 | 581.7 | – | – | – | –
CSCC[C@H](NC(=O)[C@H](CC(C)C)NC(=O)[C@H](CCCCN)NC(=O)[C@H](CCCCN)NC(=O)[C@@H](NC(=O)CNC(=O)[C@H](CCC(=O)O)NC(=O)[C@H](CCCCN)NC(=O)[C@@H]1CCCN1C(=O)[C@@H](N)CCC(=O)O)[C@@H](C)O)C(=O)O | 3 | 928.3 | – | – | – | –
CC(C)C[C@H](NC(=O)[C@H](CCCNC(=N)N)NC(=O)[C@@H]1CCCN1C(=O)[C@@H](N)CCCCN)C(=O)N[C@@H](CS)C(=O)N[C@H](C(=O)N[C@@H](CCCNC(=N)N)C(=O)N[C@@H](CCC(=O)O)C(=O)N[C@@H](CCC(=O)O)C(=O)N[C@@H](Cc1ccccc1)C(=O)O)[C@@H](C)O | 1 | 350.0 | 350 | 1 | – | –
CC(C)C[C@H](NC(=O)[C@H](CCCNC(=N)N)NC(=O)[C@@H]1CCCN1C(=O)[C@@H](N)CC(N)=O)C(=O)N[C@@H](CS)C(=O)N[C@H](C(=O)N[C@@H](CCCNC(=N)N)C(=O)N[C@@H](CCC(=O)O)C(=O)N[C@@H](CCC(=O)O)C(=O)N[C@@H](Cc1ccccc1)C(=O)O)[C@@H](C)O | 1 | 365.0 | 365 | 1 | – | –
CC[C@H](C)[C@H](NC(=O)[C@H](CC(C)C)NC(=O)[C@H](CS)NC(=O)[C@H](CC(C)C)NC(=O)[C@H](CC(C)C)NC(=O)[C@@H](N)[C@@H](C)O)C(=O)N1CCC[C@H]1C(=O)N[C@H](C(=O)N[C@H](C(=O)O)C(C)C)[C@@H](C)O | – | 53.3 | – | – | – | –
CC[C@H](C)[C@H](NC(=O)[C@H](CCCCN)NC(=O)[C@H](CO)NC(=O)[C@H](CO)NC(=O)CN)C(=O)N[C@@H](CCCNC(=N)N)C(=O)N[C@@H](Cc1c[nH]c2ccccc12)C(=O)N[C@H](C(=O)N[C@H](C(=O)N[C@@H](CCC(=O)O)C(=O)O)C(C)C)[C@@H](C)CC [GSSKIRWIVE] | 2 | 111.7 | – | – | – | –
CSCC[C@H](NC(=O)[C@H](CC(C)C)NC(=O)[C@@H](NC(=O)[C@H](CCC(=O)O)NC(=O)[C@@H](N)CC(C)C)[C@@H](C)O)C(=O)N[C@@H](CC(C)C)C(=O)N[C@H](C(=O)N[C@@H](C)C(=O)N[C@@H](CC(C)C)C(=O)O)C(C)C [LETLMLVAL] | – | – | – | – | 103.3 | 1
CSCC[C@H](N)C(=O)N[C@H](C(=O)N[C@@H](CCC(N)=O)C(=O)N[C@@H](CCCCN)C(=O)N[C@@H](C)C(=O)N[C@@H](CCCNC(=N)N)C(=O)N[C@@H](CC(N)=O)C(=O)N[C@@H](C)C(=O)N[C@@H](CC(C)C)C(=O)O)[C@@H](C)O [MTQKARNAL] | – | – | – | – | 268.3 | 2
CSCC[C@H](NC(=O)[C@H](C)NC(=O)CNC(=O)[C@H](CCC(=O)O)NC(=O)[C@@H](N)CCC(N)=O)C(=O)N[C@@H](Cc1c[nH]cn1)C(=O)N[C@@H](CO)C(=O)N[C@@H](C)C(=O)N[C@@H](CC(C)C)C(=O)O [QEGAMHSAL] | – | – | – | – | 48.3 | 1
CSCC[C@H](NC(=O)[C@H](C)NC(=O)CNC(=O)[C@H](CCC(=O)O)NC(=O)[C@@H](N)CCC(N)=O)C(=O)N[C@@H](Cc1c[nH]cn1)C(=O)N[C@H](C(=O)N[C@@H](C)C(=O)N[C@@H](CC(C)C)C(=O)O)[C@@H](C)O [QEGAMHTAL] | – | – | – | – | 40.0 | 1
ATGPVLTLW | 2 | 390.0 | 390 | 2 | – | –
CLIPTAMAF | 1 | 66.7 | 67 | 1 | – | –
DPRRCLKPV | 2 | 556.7 | – | – | – | –
DTTPFGOOR | – | – | 3260 | 8 | – | –
EERDIPERSW | 1 | 133.3 | – | – | – | –
EPISYDPKF | 1 | 340.0 | – | – | – | –
FAGPVSQHNY | 3 | 428.3 | – | – | – | –
FLMVLLIPEP | 1 | 28.3 | – | – | – | –
FTILALFLAH | 8 | 1715.0 | 1715 | 8 | – | –
GAMLFLISGK | 1 | 23.3 | – | – | – | –
GEFRLRGEQR | 3 | 1373.3 | 1373 | 3 | – | –
GFFLRKLTSR | 1 | 81.7 | – | – | – | –
